In patent US11547681B2, “N-acylethanolamide derivatives and uses thereof” (ELIEM THERAPEUTICS, INC., priority 2016, dated 2023):

Tests used:
[1] = Plasma stability (37° C., pH 7.4), mouse; assay type: in vitro ADME, CD-1 mouse; conditions: for % Remaining of Initial (n = 1): Mouse plasma; for half-life at 1 μM: male, CD-1, mouse, plasma; for % Remaining of Initial: mouse plasma, n = 1
Procedure: (§1) Studies were carried out in mixed-gender human plasma (Lot #GLP530-5), male Sprague-Dawley rat (Lot #RAT297944, RAT313140), male CD-1 mouse (Lot #MSE237700), and male Beagle dog (Lot #BGL87670, BGL82614), collected on sodium heparin. Plasma was adjusted to pH 7.4 prior to initiating the experiments. DMSO stocks were first prepared for the test articles. Aliquots of the DMSO solutions were dosed into 700 μL of plasma, which had been pre-warmed to 37° C., at a final test article concentration of 1 μM. […] Samples were stored at 4° C. until the end of the experiment. After the final time point was sampled, the plate was mixed and then centrifuged at 3,000 rpm for 10 minutes. Calibration standards were prepared in matched matrix. […] Analytical conditions are outlined in Appendix 8-1.
as §1, with “#AS1650-2),” for “#GLP530-5),”, “#RAT297944),” for “#RAT297944, RAT313140),”, “CD-I” for “CD-1”, “#BGL91384),” for “#BGL87670, BGL82614),”, “10-1.” for “8-1.”
(§2) Studies were carried out in mixed-gender human plasma (Lot #AS1650-2), male Sprague-Dawley rat (Lot #RAT297944), male CD-1 mouse (Lot #MSE237700), and male Beagle dog (Lot #BGL91384), collected on sodium heparin. Plasma was adjusted to pH 7.4 prior to initiating the experiments. DMSO stocks were first prepared for test articles. […] Samples were stored at 4° C. until the end of experiment. After the final time point was sampled, the plate was mixed and then centrifuged at 3,000 rpm for 10 minutes. Calibration standards were prepared in matched matrix. […] Analytical conditions are outlined in Appendix 13-1.
(§3) Studies were carried out in mixed-gender human plasma (Lot #AS 1650-2), male Sprague-Dawley rat (Lot #RAT320835), male CD-1 mouse (Lot #MSE260693), and 6 male Beagle dog (Lot #BGL91384), on sodium heparin. Plasma was adjusted to pH 7.4 prior to initiating the experiments. DMSO stocks were first prepared for the test articles. Aliquots of the DMSO solutions were dosed into 700 μL of plasma, which had been pre-warmed to 37° C., at a final test article concentration of 1 μM. […] Samples were stored at 4° C. until the end of the experiment. After the final time point was sampled, the plate was mixed and then centrifuged at 3,000 rpm for 10 minutes. Calibration standards were prepared in matched matrix. […] Analytical conditions are outlined in Appendix 17-1.

[2] = Plasma stability (37° C., pH 7.4), rat; assay type: in vitro ADME, Sprague-Dawley rat; conditions: for % Remaining of Initial (n = 1): Rat plasma; for half-life at 1 μM: male, Sprague-Dawley, rat, plasma; for % Remaining of Initial: rat plasma, n = 1
Procedure: as §1
as §1, with “#AS1650-2),” for “#GLP530-5),”, “#RAT297944),” for “#RAT297944, RAT313140),”, “CD-I” for “CD-1”, “#BGL91384),” for “#BGL87670, BGL82614),”, “10-1.” for “8-1.”
as §2, §3

CCCCC/C=C\C/C=C\CCCCCCCC(=O)OCC(COC(=O)CCC(=O)OCCNC(=O)CCCCCCCCCCCCCCC)OC(=O)CCCCCCC/C=C\C/C=C\CCCCC (centres unmarked) [Compound I-13]
% Remaining of Initial (n = 1) ([1]; 0 min, 1 μM): 100% | % Remaining of Initial (n = 1) ([1]; 15 min, 1 μM): 82% | % Remaining of Initial (n = 1) ([1]; 30 min, 1 μM): 71% | % Remaining of Initial (n = 1) ([1]; 60 min, 1 μM): 49% | % Remaining of Initial (n = 1) ([1]; 120 min, 1 μM): 35% | half-life at 1 μM ([1]; pH 7.4, Mouse plasma, 1 μM, read-out: Half-life): 70 min | % Remaining of Initial (n = 1) ([2]; 0 min, 1 μM): 100% | % Remaining of Initial (n = 1) ([2]; 15 min, 1 μM): 69% | % Remaining of Initial (n = 1) ([2]; 30 min, 1 μM): 76% | % Remaining of Initial (n = 1) ([2]; 60 min, 1 μM): 36% | % Remaining of Initial (n = 1) ([2]; 120 min, 1 μM): 5.1% | half-life at 1 μM ([2]; pH 7.4, Rat plasma, 1 μM, read-out: Half-life): 42 min

CCCCCCCCCCCCCCCC(=O)NCCOC(=O)CCC(=O)OC(COC(=O)CCC)COC(=O)CCC [Compound I-16]
half-life at 1 μM ([1]; pH 7.4, mouse plasma, read-out: Half-life): < 15 min | half-life at 1 μM ([1]; pH 7.4, mouse plasma, read-out: Half-life, calculated value in parentheses): 4.7 min | % Remaining of Initial ([1]; 0 min, 1 μM): 100% | % Remaining of Initial ([1]; 15 min, 1 μM): 10% | % Remaining of Initial ([1]; 30 min, 1 μM): 4.0% | % Remaining of Initial ([1]; 60 min, 1 μM): 1.1% | % Remaining of Initial ([1]; 120 min, 1 μM): <1.0% | half-life at 1 μM ([2]; pH 7.4, rat plasma, read-out: Half-life): < 15 min | half-life at 1 μM ([2]; pH 7.4, rat plasma, read-out: Half-life, calculated value in parentheses): 6.9 min | % Remaining of Initial ([2]; 0 min, 1 μM): 100% | % Remaining of Initial ([2]; 15 min, 1 μM): 20% | % Remaining of Initial ([2]; 30 min, 1 μM): 9.3% | % Remaining of Initial ([2]; 60 min, 1 μM): 4.1% | % Remaining of Initial ([2]; 120 min, 1 μM): 1.6%
